Results as given in PubChem BioAssay AID192 (DTP/NCI, 2004).
Where “and” joins values, the source holds several entries; their conditions need not be identical. Identical values can stand only once. Inconclusive results and toxic doses are left out. The calls were made as follows: active = survival T/C of 150% or more; inactive = T/C below 125% in these data.

Test system: BDF1 mice, B16 melanoma ip, median survival T/C
Assay: NCI In Vivo Anticancer Drug Screen. Data for tumor model B16 Melanoma (intraperitoneal) in B6D2F1 (BDF1) mice
Conditions: endpoint: median survival time, higher = longer survival
Summary of the method: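 Mice with transplantable tumors; drug vs vehicle groups; endpoint survival or tumor size; value = T/C.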

[1] = dose: 12.5 mg/kg/injection, schedule: Q01DX009 (ip), vehicle: saline
[2] = dose: 50.0 mg/kg/injection, schedule: Q01DX009 (ip), vehicle: saline
[3] = dose: 25.0 mg/kg/injection, schedule: Q01DX009 (ip), vehicle: saline with Tween-80
[4] = dose: 50.0 mg/kg/injection, schedule: Q01DX009 (ip), vehicle: saline with Tween-80
[5] = dose: 100.0 mg/kg/injection, schedule: Q01DX009 (ip), vehicle: Klucel (hydroxypropylcellulose) (HPC)
[6] = dose: 200.0 mg/kg/injection, schedule: Q01DX009 (ip), vehicle: Klucel (hydroxypropylcellulose) (HPC)
[7] = dose: 25.0 mg/kg/injection, schedule: Q01DX009 (ip), vehicle: saline
[8] = dose: 50.0 mg/kg/injection, schedule: Q01DX009 (ip), vehicle: Klucel (hydroxypropylcellulose) (HPC)
[9] = dose: 400.0 mg/kg/injection, schedule: Q01DX009 (ip), vehicle: Klucel (hydroxypropylcellulose) (HPC)

Measured: T/C

CCCCCCCCCCCCCCCC(=O)O[C@@]12C[C@@H](C)[C@@]3(O)[C@@H](C=C(CO)C[C@]4(O)C(=O)C(C)=C[C@@H]34)[C@@H]1C2(C)C
inactive: dose: 0.03 mg/kg/injection, schedule: Q01DX009 (ip), vehicle: saline + Tween-80 + alcohol 103 % of control | dose: 0.03 mg/kg/injection, schedule: Q01DX009 (ip), vehicle: saline 94 % of control | dose: 0.06 mg/kg/injection, schedule: Q01DX009 (ip), vehicle: saline + Tween-80 + alcohol 109 % of control | dose: 0.06 mg/kg/injection, schedule: Q01DX009 (ip), vehicle: saline 99 % of control | dose: 0.12 mg/kg/injection, schedule: Q01DX009 (ip), vehicle: saline 96 % of control | dose: 0.13 mg/kg/injection, schedule: Q01DX009 (ip), vehicle: other 103 % of control | dose: 0.13 mg/kg/injection, schedule: Q01DX009 (ip), vehicle: saline + Tween-80 + alcohol 110 % of control | dose: 0.25 mg/kg/injection, schedule: Q01DX009 (ip), vehicle: saline 92 % of control | dose: 0.5 mg/kg/injection, schedule: Q01DX009 (ip), vehicle: saline 92 % of control

COC1=NCN=C2SC=C(N)N=C12
inactive: dose: 3.13 mg/kg/injection, schedule: Q01DX009 (ip), vehicle: saline 105 % of control | dose: 6.25 mg/kg/injection, schedule: Q01DX009 (ip), vehicle: saline 100 % of control and 109 % of control | [1] 96 % of control and 98 % of control | [2] 98 % of control and 100 % of control

CNNCc1ccc(C(=O)NC(C)C)cc1
inactive: dose: 37.5 mg/kg/injection, schedule: Q01DX009 (ip), vehicle: water 121 % of control | dose: 40.0 mg/kg/injection, schedule: Q01DX009 (ip), vehicle: saline with Tween-80 108 % of control | dose: 54.0 mg/kg/injection, schedule: Q01DX009 (ip), vehicle: saline 123 % of control | dose: 90.0 mg/kg/injection, schedule: Q01DX009 (ip), vehicle: saline 120 % of control | dose: 250.0 mg/kg/injection, schedule: Q01DX009 (ip), vehicle: saline 123 % of control | dose: 320.0 mg/kg/injection, schedule: Q01DX009 (ip), vehicle: saline with Tween-80 98 % of control

CN1C(=O)CC2(CCN(CCCC(=O)c3ccc(F)cc3)CC2)C1=O
inactive: dose: 6.25 mg/kg/injection, schedule: Q01DX009 (ip), vehicle: saline with Tween-80 99 % of control | dose: 12.5 mg/kg/injection, schedule: Q01DX009 (ip), vehicle: saline with Tween-80 109 % of control | [3] 104 % of control | [4] 95 % of control

O=C(/C=C/C(=O)Oc1ccc(Cl)cc1)Oc1ccc(Cl)cc1
inactive: [5] 94 % of control | [6] 94 % of control

C=C1C/C(=C/C)C(=O)O[C@@H]2CCN3CC=C(COC(=O)[C@]1(C)O)[C@H]23
inactive: [1] 109 % of control | [7] 116 % of control | [2] 116 % of control | dose: 100.0 mg/kg/injection, schedule: Q01DX009 (ip), vehicle: saline 107 % of control

FC(F)(F)c1ccc(Cl)c(NC2=NCCCS2)c1
inactive: [8] 96 % of control | [5] 89 % of control

CSCCC1NC(=O)C(/C(C)=N\NC(N)=O)=C1O (stereo unspecified)
inactive: [3] 111 % of control | [4] 105 % of control | dose: 100.0 mg/kg/injection, schedule: Q01DX009 (ip), vehicle: saline with Tween-80 96 % of control | dose: 200.0 mg/kg/injection, schedule: Q01DX009 (ip), vehicle: saline with Tween-80 96 % of control

NC(=O)C(CC(=O)OCc1ccccc1)NC(=O)OCc1ccccc1 (stereo unspecified)
inactive: [5] 118 % of control | [6] 107 % of control | [9] 113 % of control

N=[N+]=CC(=O)CCC(NC(=O)C(CCC(=O)C=[N+]=N)NC(=O)CCC(N)C(=O)O)C(=O)O (stereo unspecified)
inactive: dose: 0.01 mg/kg/injection, schedule: Q01DX009 (ip), vehicle: other 96 % of control and 100 % of control and 106 % of control | dose: 0.05 mg/kg/injection, schedule: Q01DX009 (ip), vehicle: saline 100 % of control | dose: 0.1 mg/kg/injection, schedule: Q01DX009 (ip), vehicle: saline 117 % of control | dose: 0.1 mg/kg/injection, schedule: Q01DX009 (ip), vehicle: suspension in saline 90 % of control | dose: 0.2 mg/kg/injection, schedule: Q01DX009 (ip), vehicle: Klucel (hydroxypropylcellulose) (HPC) 90 % of control | dose: 0.2 mg/kg/injection, schedule: Q01DX009 (ip), vehicle: suspension in saline 103 % of control | dose: 0.4 mg/kg/injection, schedule: Q01DX009 (ip), vehicle: Klucel (hydroxypropylcellulose) (HPC) 92 % of control | dose: 0.4 mg/kg/injection, schedule: Q01DX009 (ip), vehicle: suspension in saline 101 % of control | dose: 0.5 mg/kg/injection, schedule: Q01DX009 (ip), vehicle: other 87 % of control | dose: 0.8 mg/kg/injection, schedule: Q01DX009 (ip), vehicle: Klucel (hydroxypropylcellulose) (HPC) 100 % of control | dose: 0.8 mg/kg/injection, schedule: Q01DX009 (ip), vehicle: suspension in saline 100 % of control | dose: 1.6 mg/kg/injection, schedule: Q01DX009 (ip), vehicle: Klucel (hydroxypropylcellulose) (HPC) 100 % of control | dose: 1.6 mg/kg/injection, schedule: Q01DX009 (ip), vehicle: suspension in saline 105 % of control | dose: 2.5 mg/kg/injection, schedule: Q04DX003 (ip), vehicle: water 105 % of control | dose: 5.0 mg/kg/injection, schedule: Q04DX003 (ip), vehicle: water 105 % of control | dose: 10.0 mg/kg/injection, schedule: Q04DX003 (ip), vehicle: other 122 % of control | dose: 10.0 mg/kg/injection, schedule: Q04DX003 (ip), vehicle: water 107 % of control | dose: 5.0 micrograms/kg/injection, schedule: Q01DX009 (ip), vehicle: water 123 % of control | dose: 10.0 micrograms/kg/injection, schedule: Q01DX009 (ip), vehicle: water 94 % of control | dose: 50.0 micrograms/kg/injection, schedule: Q01DX009 (ip), vehicle: water 115 % of control | dose: 100.0 micrograms/kg/injection, schedule: Q01DX009 (ip), vehicle: water 89 % of control

CCCCCCCCOc1ccc(C(=O)c2ccccc2)c(O)c1
inactive: dose: 6.0 mg/kg/injection, schedule: Q01DX009 (ip), vehicle: Klucel (hydroxypropylcellulose) (HPC) 92 % of control | dose: 100.0 mg/kg/injection, schedule: Q04DX003 (ip), vehicle: Klucel (hydroxypropylcellulose) (HPC) 91 % of control | dose: 200.0 mg/kg/injection, schedule: Q04DX003 (ip), vehicle: Klucel (hydroxypropylcellulose) (HPC) 93 % of control

CCCCCCCCCCCCCC(=O)N(C)C
inactive: [1] 97 % of control | [7] 97 % of control | [4] 93 % of control

CCCCCc1ccccc1
inactive: [5] 106 % of control | [6] 110 % of control | [9] 90 % of control

CC1C=CC(C(N)C(=O)O)O1 (stereo unspecified)
inactive: [1] 97 % of control | [7] 92 % of control

CC12CCC(O)CC1CCC1C2CCC2(C)C(C3=CC(=O)OC3)CCC12O (stereo unspecified)
inactive: dose: 2.0 mg/kg/injection, schedule: Q01DX009 (ip), vehicle: Klucel (hydroxypropylcellulose) (HPC) 105 % of control | dose: 4.0 mg/kg/injection, schedule: Q01DX009 (ip), vehicle: Klucel (hydroxypropylcellulose) (HPC) 96 % of control | dose: 8.0 mg/kg/injection, schedule: Q01DX009 (ip), vehicle: Klucel (hydroxypropylcellulose) (HPC) 98 % of control

C#CC(C)(O)c1ccccc1 (stereo unspecified)
inactive: [8] 100 % of control | [5] 100 % of control | [6] 103 % of control
